Consider 54 compounds from patent publication US20250099448A1, “HETEROCYCLIC COMPOUNDS” (Hoffmann-La Roche Inc., priority 2022, published 2025).

The target in the assay is T1, MAGL protein (Homo sapiens, UniProt Q99685).
T1 sequence (Q99685 1-303): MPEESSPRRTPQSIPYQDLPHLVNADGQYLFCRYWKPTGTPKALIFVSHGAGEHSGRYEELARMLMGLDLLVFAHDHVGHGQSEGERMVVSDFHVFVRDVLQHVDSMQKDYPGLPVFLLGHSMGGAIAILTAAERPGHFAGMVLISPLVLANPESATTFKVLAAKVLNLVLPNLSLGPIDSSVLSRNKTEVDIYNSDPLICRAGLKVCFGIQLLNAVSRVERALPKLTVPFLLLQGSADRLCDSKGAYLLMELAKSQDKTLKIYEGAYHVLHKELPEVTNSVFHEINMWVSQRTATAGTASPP
The experiment in a line: 2-AG assay: MAGL inhibitory activity by hydrolysis of 2-arachidonoylglycerol to arachidonic acid, followed by mass spectrometry. The assay is classed as biochemical. To be noted: 8 μM 2-arachidonoylglycerol, 15 min preincubation, 30 min reaction at RT, RapidFire MS readout. The method in brief: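 MAGL was preincubated 15 min at RT with compound (12.5 to […], 3-fold steps) in 50 mM TRIS, 1 mM EDTA, 0.01% Tween-20, 2.5% DMSO. The reaction ran 30 min at RT with 8 μM 2-AG. Arachidonic acid was quantified by RapidFire SPE-MS/MS against a d8-arachidonic acid internal standard.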

Molecules are shown by their SMILES.

As a reminder, the IC50 is the concentration at which inhibition is half-maximal. Read a high IC50 as a need for much substance. Turning to `O=C(N1CC(NCc2cc(Cl)ccc2C(F)(F)F)C1)N1CC2(CC(c3nnc(C4CC4)[nH]3)C2)C1` [compound 199], the IC50 was found to be 31.9 nM. `O=C(N1CC2(CC(Cc3ccc(F)cn3)C2)C1)N1CC2(CC(c3nnc(C4(O)CC4)[nH]3)C2)C1` [compound 44] displayed a 50% inhibitory concentration (IC50) of 2.24 nM. In the case of `O=C(N1CC(C23CC(Cn4cc(C(F)(F)F)cn4)(C2)C3)C1)N1CC2(CC(c3nc(C4CC4)n[nH]3)C2)C1` [compound 949] it was 0.16 nM; in that of `O=C(N1CC2(CC(NC3(C(F)(F)F)CC3)C2)C1)N1CC2(CC(c3nnc(C4CC4)[nH]3)C2)C1` [compound 70], 7.25 nM.

For the compound `O=C(N1CC(NCc2ccc(C(F)(F)F)cc2Cl)C1)N1CC2(CC(c3nnc(C4CC4)[nH]3)C2)C1` [compound 190], the half-maximal inhibitory concentration (IC50) stood at 12.6 nM. As for `NC(=O)C1CCCN1c1ccc(C2CN(C(=O)N3CC4(CC(c5nnc(C6CC6)[nH]5)C4)C3)C2)cc1` (stereo not drawn) [compound 386], the figure is 246 nM.

In turn, `O=C(N1CC(C23CC(Cc4ccc(C(F)(F)F)nc4)(C2)C3)C1)N1CC2(CC(c3nc(C4(O)CC4)n[nH]3)C2)C1` [compound 570] displayed a concentration for half-maximal inhibition (IC50) of 35.8 nM. With `O=C(N1CC(OCc2ccc(C(F)(F)F)cc2F)C1)N1CC2(CC(c3nnc(C4CC4)[nH]3)C2)C1` [compound 311], the IC50 is 2.35 nM. As for `O=C(N1CC(C23CC(c4cccc(OC(F)(F)F)c4)(C2)C3)C1)N1CC2(CC(c3nc(C4(O)CC4)n[nH]3)C2)C1` [compound 529], the figure is 0.31 nM; as for `O=C(N1CC2(CCN(Cc3ccc(S(=O)(=O)C(F)(F)F)cc3)CC2)C1)N1CC2(CC(c3nnc(C4CC4)[nH]3)C2)C1` [compound 85], 1.02 nM; as for `N#Cc1ccc(=O)n(CC2CC3(C2)CN(C(=O)N2CC4(CC(c5nc(C6CC6)n[nH]5)C4)C2)C3)c1` [compound 480], 12.1 nM. As for `O=C(N1CC2(CC(c3nc(C4CC4)n[nH]3)C2)C1)N1CC2(CN(Cc3ccn(CC(F)(F)F)c(=O)c3)C2)C1` [compound 426], the figure is 274 nM; as for `NS(=O)(=O)c1ccc(C2CN(C(=O)N3CC4(CC(c5nnc(C6CC6)[nH]5)C4)C3)C2)cc1` [compound 380], 64.2 nM.

On to `CS(=O)(=O)c1cc(Cl)ccc1C12CC(C3CN(C(=O)N4CC5(CC(c6nnc(C7CC7)[nH]6)C5)C4)C3)(C1)C2` [compound 562], for which the midpoint of inhibition, the IC50, lay at 0.2 nM. As for `CN(c1ccccc1)c1ccc(C2CN(C(=O)N3CC4(CC(c5nnc(C6CC6)[nH]5)C4)C3)C2)cn1` [compound 383], the figure is 2.09 nM; as for `O=C(N1CC2(CCN(Cc3cccc(S(=O)(=O)C(F)(F)F)c3)CC2)C1)N1CC2(CC(c3nnc(C4CC4)[nH]3)C2)C1` [compound 180], 0.91 nM; as for `O=C(N1CC(C23CC(COc4cc(C(F)(F)F)ccn4)(C2)C3)C1)N1CC2(CC(c3nc(C4CC4)n[nH]3)C2)C1` [compound 942], 1.32 nM. As for `O=C(N1CC(C23CC(Nc4cnc(C(F)(F)F)cn4)(C2)C3)C1)N1CC2(CC(c3nc(C4(O)CC4)n[nH]3)C2)C1` [compound 593], the figure is 1.36 nM; as for `O=C(N1CC2(CC(Cn3cnc(C(F)(F)F)n3)C2)C1)N1CC2(CC(c3nnc(C4CC4)[nH]3)C2)C1` [compound 71], 1.74 nM; as for `COC(=O)C(C)(C)c1cccc(OC2CN(C(=O)N3CC4(CC(c5nnc(C6CC6)[nH]5)C4)C3)C2)c1` [compound 318], 7.3 nM. On to `O=C(N1CC2(CC(Cc3ncc(F)cc3Cl)C2)C1)N1CC2(CC(c3ncn[nH]3)C2)C1` [compound 789], for which the concentration for half-maximal inhibition (IC50) was 404 nM. In the case of `O=C(N1CC2(CC(Cc3cc(C(F)(F)F)ccn3)C2)C1)N1CC2(CC(c3ncn[nH]3)C2)C1` [compound 985], the IC50 turned out to be 2990 nM. The compound `O=C(N1CC2(CC(Cc3cnc(C(F)(F)F)nc3)C2)C1)N1CC2(CC(c3nnc(C4CC4)[nH]3)C2)C1` [compound 20] returned an IC50 of 0.74 nM.

For `O=C(N1CC(OCc2ccc(S(=O)(=O)C(F)(F)F)cc2F)C1)N1CC2(CC(c3nnc(C4CC4)[nH]3)C2)C1` [compound 309], the IC50 was 2.2 nM. In the case of `O=C(N1CC(c2ccc(-n3nc(C4CC4)cc3C(F)F)cc2)C1)N1CC2(CC(c3nnc(C4CC4)[nH]3)C2)C1` [compound 875] it was 0.33 nM. In the case of `O=C(N1CC2(CC(c3nc(C4CC4)n[nH]3)C2)C1)N1CC2(CN(Cc3ccc(C(F)(F)F)cc3F)C2)C1` [compound 584] it was 0.48 nM. With `Cn1c(CN2CC3(C2)CN(C(=O)N2CC4(CC(c5nc(C6CC6)n[nH]5)C4)C2)C3)nnc1C(F)(F)F` [Example 958, [6-(3-cyclopropyl-1H-1,2,4-triazol-5-yl)-2-azaspiro[3.3]heptan-2-yl]-[6-[[4-methyl-5-(trifluoromethyl)-1,2,4-triazol-3-yl]methyl]-2,6-diazaspiro[3.3]heptan-2-yl]methanone], the IC50 amounted to 152 nM. As for `O=C(N1CC2(CC(Cn3nccc3C3CC3)C2)C1)N1CC2(CC(c3nc(C4CC4)n[nH]3)C2)C1` [compound 973], the figure is 0.27 nM; as for `O=C(N1CC(C23CC(Cc4ccc(C(F)(F)F)cc4F)(C2)C3)C1)N1CC2(CC(c3nc(C4(O)CC4)n[nH]3)C2)C1` [compound 438], 3.46 nM; as for `O=C(N1CC2(CC(c3nnc(C4CC4)[nH]3)C2)C1)N1CC2(C1)CN(S(=O)(=O)NCC1(C(F)(F)F)CC1)C2` [compound 216], 11 nM. In turn, `O=C(N1CC2(CC(Cc3ncc(C(F)(F)F)cc3F)C2)C1)N1CC2(CC(c3nc(C4CC(F)(F)C4)n[nH]3)C2)C1` [compound 508] returned an IC50 of 6.66 nM. `Cn1ncc(C(F)(F)F)c1CC1CC2(C1)CN(C(=O)N1CC3(CC(c4nc(C5CC5)n[nH]4)C3)C1)C2` [compound 691] showed an IC50 of 0.16 nM. As for `CS(=O)(=O)c1ccc(CC2CC3(C2)CN(C(=O)N2CC4(CC(c5nnc(C6CC6)[nH]5)C4)C2)C3)nc1` [compound 119], the figure is 6.52 nM.

In the case of `Cc1nc(C)c(CN2CC3(C2)CN(C(=O)N2CC4(CC(c5nnc(C6CC6)[nH]5)C4)C2)C3)o1` [compound 898], the half-maximal inhibitory concentration (IC50) was 218 nM. `O=C(N1CC(C23CC(c4ccc(OC(F)(F)F)cc4)(C2)C3)C1)N1CC2(CC(c3nc(C4(O)CC4)n[nH]3)C2)C1` [compound 551] gave a half-maximal inhibitory concentration (IC50) of 0.18 nM. As for `O=C(N1CC2(CC(Oc3ccc(Cl)cn3)C2)C1)N1CC2(CC(c3nc(C4CC4)n[nH]3)C2)C1` [compound 619], the figure is 0.79 nM. As for `N=S(=O)(c1cccc(CC2CC3(C2)CN(C(=O)N2CC4(CC(c5nc(C6CC(F)(F)C6)n[nH]5)C4)C2)C3)c1)C(F)(F)F` (stereo not drawn) [compound 668], the figure is 9.75 nM; as for `O=C(N1CC(c2ccc(Oc3ccccc3Cl)nc2)C1)N1CC2(CC(c3nnc(C4CC4)[nH]3)C2)C1` [compound 367], 0.15 nM.

In the case of `O=C(N1CC2(CC(Cc3nc(C(F)(F)F)cs3)C2)C1)N1CC2(CC(c3nc(C4(O)CC4)n[nH]3)C2)C1` [compound 536], the 50% inhibitory concentration (IC50) came out at 3.93 nM.

On to `O=C(N1CC(OCc2ccc(C(F)(F)F)nc2)C1)N1CC2(CC(c3nnc(C4CC4)[nH]3)C2)C1` [compound 332], for which the IC50 is 159 nM. In the case of `O=C(N1CC2(CC(Cc3ccc(C(F)(F)F)nn3)C2)C1)N1CC2(CC(c3nc(C4CC(F)(F)C4)n[nH]3)C2)C1` [compound 452] it was 413 nM; in that of `O=C(N1CC(C23CC(S(=O)(=O)CC4(C(F)(F)F)CC4)(C2)C3)C1)N1CC2(CC(c3nc(C4CC4)n[nH]3)C2)C1` [compound 528], 497 nM. In the case of `Cn1ncc(C(F)(F)F)c1CN1CCC2(CC1)CN(C(=O)N1CC3(CC(c4nc(C5CC5)n[nH]4)C3)C1)C2` [compound 461] it was 1 nM; in that of `O=C(N1CC2(CCN(S(=O)(=O)C34CC(C(F)(F)F)(C3)C4)CC2)C1)N1CC2(CC(c3nnc(C4CCC4)[nH]3)C2)C1` [compound 239], 842 nM; in that of `O=C(N1CC(c2ccc(-n3ccc(C(F)(F)F)n3)cc2)C1)N1CC2(CC(c3nnc(C4CC4)[nH]3)C2)C1` [compound 873], 0.67 nM. In the case of `O=C(N1CC2(CC(Cc3cnc(C(F)(F)F)cn3)C2)C1)N1CC2(CC(c3nc(C4(F)CC4)n[nH]3)C2)C1` [compound 424] it was 0.46 nM; in that of `O=C(N1CC(NCc2ccc(OC(F)(F)F)cc2F)C1)N1CC2(CC(c3nnc(C4CC4)[nH]3)C2)C1` [compound 189], 38.6 nM. For the compound `O=C(N1CC2(CC(NCc3ccc(C(F)(F)F)cc3F)C2)C1)N1CC2(CC(c3nnc(C4CC4)[nH]3)C2)C1` [compound 185], half-maximal inhibition (IC50) was put at 1.65 nM.

With `O=C(N1CC(C23CC(c4nnc(C5(C(F)(F)F)CC5)o4)(C2)C3)C1)N1CC2(CC(c3nc(C4(O)CC4)n[nH]3)C2)C1` [compound 573], the IC50 came out at 904 nM. As for `O=C(N1CC2(CC(Cn3ccnc3C(F)(F)F)C2)C1)N1CC2(CC(c3nc(C4CC4)n[nH]3)C2)C1` [compound 453], the figure is 1.73 nM; as for `O=C(N1CC(C23CC(S(=O)(=O)c4ccc(C(F)(F)F)cn4)(C2)C3)C1)N1CC2(CC(c3nc(C4CC4)n[nH]3)C2)C1` [compound 807], 478 nM. `COc1cc(C#N)ccc1COC1CCN(C(=O)N2CC3(CC(c4nnc(C5CC5)[nH]4)C3)C2)CC1` [Example 861] displayed a half-inhibitory concentration (IC50) of 59.6 nM. As for `O=C(N1CC2(CC(c3ccc(C(F)(F)F)cc3)C2)C1)N1CC2(CC(c3nnc(C4CC4)[nH]3)C2)C1` [compound 940], the figure is 0.58 nM. As for `O=C(N1CC2(CCC(Cc3cnc(C(F)(F)F)cn3)CC2)C1)N1CC2(CC(c3nnc(C4CC4)[nH]3)C2)C1` [compound 136], the figure is 0.57 nM.
